Results as given in patent publication US9545400B2, “Analgesic composition including opioid analgesic and P7C3” (CHONNAM NATIONAL UNIVERSITY HOSPITAL, priority 2014, dated 2017).

Experiments:
[1] = test system: Sprague-Dawley rats; assay: Formalin-induced pain test (flinching) after intrathecal administration; assay type: in vivo, rat; settings: for ED50 (dose which decreases the formalin response of the control by 50%), Phase 1 / ED50 (dose which decreases the formalin response of the control by 50%), Phase 2: drug alone, intrathecal 10 min before formalin injection, rat; for ED50 (dose which decreases the formalin response of the control by 50%), Phase 1: Phase 1 (0 to 9 min); for ED50 (dose which decreases the formalin response of the control by 50%), Phase 2: Phase 2 (10 to 60 min); for Ratio of ED50 in Phase 1 to ED50 in Phase 2: formalin experiment; for Ratio of ED50 in Phase 1 to ED50 in Phase 2 / Flinching reactions, dose-response (percentage of control) / Number of flinches over time at the highest dose: intrathecal; for Flinching reactions, dose-response (percentage of control): Phase 1 and Phase 2, FIGS. 2A and 2B; for Number of flinches over time at the highest dose: FIGS. 1A and 1B
Procedure: (§1) After permission for all the procedures in the experimental protocol was obtained by The Institutional Animal Care and Use Committee of Chonnam National University, experiments were performed. Adult male Sprague-Dawley rats (250 to 300 g) were used as the experimental subject, four rats per group were housed and kept in a well-controlled vivarium, maintained at 22° C. for 12 hours, with an alternating light/dark cycle and were given food and water ad libitum. Rats were under sevoflurance anesthesia in order to be implanted with an intrathecal catheter, and placed in a stereotaxic apparatus A polyethylene catheter lower end portion was intrathecally inserted so as to be positioned within the lumbar extension portion through an incision in the cisternal membrane. Then, the catheter upper end portion was secured at the skull. After the catheter implantation, rats were again housed in individual cages. After the intrathecal catheter implantation, rats showing movement disorder were excluded in the experiment, and killed by administering an overdose of sevoflurane. Rats showing normal responses were again housed in individual cages in the vivarium, and given a recovery time of 5 days.
A formalin experiment was used as a pain evoking experimental tool. 50 μL of a 5% formalin solution was injected subcutaneously into the subcutaneous tissue of a hind paw of the rat. […] The number of flinches was counted for 1 min periods at 1 and 5 min and at 5 min intervals from 10 to 60 min after the injection. […] Therefore, the phase from 0 to 9 minutes after the injection of formalin was defined as Phase 1, and the phase from 10 to 60 minutes was defined as Phase 2. After the behavior study, rats were administered an overdose of sevoflurane, and then killed.
The effect of the experimental drug for the formalin injection was tested for 5 days after the intrathecal catheter implantation. After acclimatization for 15 to 20 min in a restraint cylinder (10×10×30 cm), the rats were allocated to receive one of the experimental drugs, and tested only once. The same volume of the vehicle (saline, 0.1 N NaOH or DMSO) was administered to a control. The total number of rats used in the nociceptive behavioral study was 139 with 6 to 8 rats per group. The investigators were blind as to the administration amount and type of experimental drug used in each rat.
Saline, 10, 30, and 100 μg of P7C3 (Tocris Cookson Ltd., Bristol, UK), and 1, 3, 10, and 30 μg of morphine sulfate (Sigma-Aldrich, St. Louis, Mo., USA) were intrathecally administered 10 minutes before formalin injection, and analgesic effects (flinching number analysis) were investigated according to the aforementioned pain experiment. The drug was intrathecally administered by using a manually gear operated syringe pump. All the drugs were administered in an amount of 10 μl, and an additional 10 μl of standard saline was administered in order to wash out the catheter.
The dose (ED50), which decreases the formalin response of the control for P7C3 and morphine by 50%, was determined at Phase 1 and the Phase 2, respectively.
And then, ED50 of the mixed drug was obtained. The experiment was performed individually in Phase 1 and Phase 2.
Data obtained in Examples 1 and 2 were expressed as means±SEM. The time response data are presented as the number of flinches. The dose-response data are presented as a percentage of the control. Percentage of the control=(total number of flinches in drug administration group in Phase 1[2]/number of flinches of control in Phase 1[2])×100

[2] = test system: Sprague-Dawley rats; assay: Evaluation of response of intrathecal administration of P7C3 (motor function and pinna/corneal reflexes); assay type: in vivo, rat; settings: highest dose (100 μg) intrathecal, 5 rats
Procedure: as §1, with “After the intrathecal catheter implantation, rats showing movement disorder were excluded in the experiment, and killed by administering an overdose of sevoflurane. Rats showing normal responses were again housed in individual cages in the vivarium, and given a recovery time of 5 days.” left out
In order to detect undesirable behaviors induced by P7C3, the highest dose (100 μg) was intrathecally administered to 5 rats of each individual group. Motor function was assessed by the placing-stepping reflex and the righting reflex. […] The latter was evaluated by placing the rat horizontally with the rat's back on the table. […] The central nervous system was evaluated through pinna and corneal reflexes. […]

Compound | ED50 (dose which decreases the formalin response of the control by 50%), Phase 1 [1] | ED50 (dose which decreases the formalin response of the control by 50%), Phase 2 [1] | Ratio of ED50 in Phase 1 to ED50 in Phase 2 [1] | Flinching reactions, dose-response (percentage of control) [1] | Number of flinches over time at the highest dose [1] | Normality of behavior: placing-stepping, righting, pinna and corneal reflexes [2]
CN1CC[C@]23c4c5ccc(O)c4O[C@H]2[C@@H](O)C=C[C@H]3[C@H]1C5 [Morphine, (5α,6α)-7,8-didehydro-4,5-epoxy-17-methylmorphinan-3,6-diol, reference compound] | 8.8 µg | 3.9 µg | two times larger | suppressed flinching reactions dose-dependently | exhibited potential analgesic effects throughout the entire observation period | 
OC(CNc1ccccc1)Cn1c2ccc(Br)cc2c2cc(Br)ccc21 (centres unmarked) [P7C3, 1-(3,6-dibromo-9H-carbazol-9-yl)-3-(phenylamino)propan-2-ol] | 31.8 µg | 31 µg | similar | suppressed flinching reactions dose-dependently | exhibited potential analgesic effects throughout the entire observation period | all normal (present)
